Data set [1] is described as follows: Rodent pharmacokinetics (rat PK). In kind it is in vivo. To be noted: po, dosed intravenously or orally by gavage, plasma, read-out: F % (bioavailability). In short, it runs like this:
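Rats were dosed IV or by oral gavage, with jugular blood taken predose and at 5 min (IV only), 15, 30 min and 1, 2, 4, 8, 24 h. Plasma was separated by centrifugation at 4 °C. Oral bioavailability (F %) is coded A (≥5%) or B (≤5%).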

Another data set deals with T1, IRAK4 (Homo sapiens, UniProt Q9NWZ3).
T1 construct: endogenous in cells; host or cells: OCI-LY10
T1 sequence (Q9NWZ3 1-460): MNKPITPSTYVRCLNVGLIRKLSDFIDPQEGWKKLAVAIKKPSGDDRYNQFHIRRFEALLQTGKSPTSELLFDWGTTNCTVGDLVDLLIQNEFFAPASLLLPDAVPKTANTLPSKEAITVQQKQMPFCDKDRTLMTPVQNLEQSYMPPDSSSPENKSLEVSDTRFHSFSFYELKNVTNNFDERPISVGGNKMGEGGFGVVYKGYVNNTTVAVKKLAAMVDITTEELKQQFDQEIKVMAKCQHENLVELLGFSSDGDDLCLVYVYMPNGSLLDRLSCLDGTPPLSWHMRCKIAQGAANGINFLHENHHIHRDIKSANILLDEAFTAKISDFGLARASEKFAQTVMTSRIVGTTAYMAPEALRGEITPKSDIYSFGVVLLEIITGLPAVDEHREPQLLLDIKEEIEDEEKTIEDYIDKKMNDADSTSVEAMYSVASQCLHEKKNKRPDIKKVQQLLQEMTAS
Kind of data set: IRAK4 MSD degradation in OCI-LY10. The class given is cell-based. To be noted: OCI-LY10 cells, 24 hrs, Meso Scale Discovery. The procedure, abridged: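 OCI-LY10 cells treated 4 to 24 hours at 37° C. with 8-dose 1:3 series, top 1 to 10 μM. IRAK4 in lysates quantified by MSD sandwich immunoassay (mouse capture, rabbit detection, SULFO-TAG anti-rabbit). DC50 from three-parameter logistic fit.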

Structures are written as SMILES.

This note sets out measurements from patent US20250059164A1, “IRAK DEGRADERS AND USES THEREOF” (Kymera Therapeutics, Inc., priority 2023, published 2025).

On to `Cn1nc(C2CCC(=O)NC2=O)c2cccc([C@@H]3CCN(C[C@H]4CC[C@H](n5cc6cc(NC(=O)c7cncc(C(F)(F)F)n7)ncc6n5)CC4)C[C@H]3F)c21` (single isomer, unassigned) [I-370], for which, in data set [1], the bioavailability is ≥ 5%. In addition, on IRAK4, the DC50 was < 10 nM.

In the case of `Cc1nn(C2CCC(=O)NC2=O)c2cccc([C@@H]3CCN(C[C@H]4CC[C@H](n5cc6cc(NC(=O)c7cncc(C(F)(F)F)n7)ccc6n5)CC4)CC3(F)F)c12` (single isomer, unassigned) [I-371], the bioavailability in data set [1] was ≥ 5%. At IRAK4, this molecule had a DC50 of 10 to 100 nM.

Regarding `Cc1nn(C2CCC(=O)NC2=O)c2cccc([C@H]3CCN(C[C@H]4CC[C@H](n5cc6cc(NC(=O)c7cncc(C(F)(F)F)n7)ccc6n5)CC4)CC3(F)F)c12` (single isomer, unassigned) [I-372], the bioavailability in data set [1] is ≥ 5%. The DC50 on IRAK4 lay in the range of 10 to 100 nM.

Consider `Cn1c(=O)n(C2CCC(=O)NC2=O)c2ccc(F)c([C@H]3CCN(C[C@H]4CC[C@H](n5cc6cc(NC(=O)c7cncc(C#N)c7)c(C(C)(C)O)cc6n5)CC4)CC3(F)F)c21` (single isomer, unassigned) [I-383], for which the bioavailability in data set [1] was ≤ 5%. Moreover, the DC50 on IRAK4 is < 10 nM.

For `Cn1c(=O)n(C2CCC(=O)NC2=O)c2cccc([C@@H]3CCN(C[C@H]4CC[C@H](n5cc6cc(NC(=O)c7cncc(C#N)c7)c(C(C)(C)O)cc6n5)CC4)CC3(F)F)c21` (single isomer, unassigned) [I-389], the bioavailability in data set [1] is ≤ 5%. The DC50 at IRAK4 is < 10 nM.

With `Cn1c(=O)n(C2CCC(=O)NC2=O)c2cccc([C@H]3CCN(C[C@H]4CC[C@H](n5cc6cc(NC(=O)c7cncc(C#N)c7)c(C(C)(C)O)cc6n5)CC4)CC3(F)F)c21` (single isomer, unassigned) [I-390], the bioavailability in data set [1] was ≤ 5%. Further, the DC50 at IRAK4 is < 10 nM.

`COc1ccc2c(c1[C@@H]1CCN(C[C@H]3CC[C@H](n4cc5cc(NC(=O)c6cncc(C(F)(F)F)n6)ccc5n4)CC3)CC1(F)F)n(C)c(=O)n2C1CCC(=O)NC1=O` (single isomer, unassigned) [I-391]: in data set [1], the bioavailability was ≥ 5%. Besides, the DC50 on IRAK4 is < 10 nM.

With `COc1ccc2c(c1[C@H]1CCN(C[C@H]3CC[C@H](n4cc5cc(NC(=O)c6cncc(C(F)(F)F)n6)ccc5n4)CC3)CC1(F)F)n(C)c(=O)n2C1CCC(=O)NC1=O` (single isomer, unassigned) [I-392], the bioavailability in data set [1] is ≥ 5%. In addition, the DC50 at IRAK4 is < 10 nM.

Consider `Cn1c(=O)n(C2CCC(=O)NC2=O)c2cccc([C@@H]3CCN(C[C@H]4CC[C@H](n5cc6cc(NC(=O)c7cccc(C(F)(F)F)n7)c(N7CCN(C8CC8)CC7)cc6n5)CC4)C[C@H]3F)c21` (stereo partly shown) [I-107], for which, in data set [1], the bioavailability was ≤ 5%. The same molecule had a DC50 on IRAK4 of 10 to 100 nM.

Take `Cn1c(=O)n(C2CCC(=O)NC2=O)c2cccc(C#CCOC[C@H]3CC[C@H](n4cc(NC(=O)c5cnn6ccc(N7C[C@H]8C[C@@H]7CO8)nc56)c(C(F)F)n4)CC3)c21` (stereo partly shown) [I-108]: the bioavailability in data set [1] was ≥ 5%. The DC50 on IRAK4 lay within 10 to 100 nM.

Take `Cn1c(=O)n(C2CCC(=O)NC2=O)c2cccc(CCCOC[C@H]3CC[C@H](n4cc(NC(=O)c5cnn6ccc(N7C[C@H]8C[C@@H]7CO8)nc56)c(C(F)F)n4)CC3)c21` (stereo partly shown) [I-109]: the bioavailability in data set [1] was ≤ 5%. Besides, the DC50 at IRAK4 was > 200 nM.

Consider `COc1cc2nc([C@H]3CC[C@H](CN4CCC5(CN(c6cccc7c6n(C)c(=O)n7C6CCC(=O)NC6=O)C5)C(F)(F)C4)CC3)sc2cc1NC(=O)c1cncc(C#N)c1` (stereo partly shown) [I-110], for which, in data set [1], the bioavailability was ≤ 5%. At IRAK4, this molecule had a DC50 of 10 to 100 nM.

`Cn1c(=O)n(C2CCC(=O)NC2=O)c2cccc(N3CC(COC[C@H]4CC[C@H](n5cc(NC(=O)c6cnn7ccc(N8C[C@H]9C[C@@H]8CO9)nc67)c(C(F)F)n5)CC4)C3)c21` (stereo partly shown) [I-111]: the bioavailability in data set [1] was ≤ 5%. For the same molecule, the DC50 on IRAK4 is > 200 nM.

As for `Cn1c(=O)n(C2CCC(=O)NC2=O)c2ccc(F)c(N3CC(N4CCN([C@H]5CC[C@H](n6cc(NC(=O)c7cnn8ccc(N9C[C@H]%10C[C@@H]9CO%10)nc78)c(C(F)F)n6)CC5)CC4)C3)c21` (stereo partly shown) [I-117], the bioavailability in data set [1] was ≥ 5%. Further, on IRAK4, the DC50 is < 10 nM.

As for `COc1cc2nn([C@H]3CC[C@H](CN4CCC5(CCN(c6cccc7c6n(C)c(=O)n7C6CCC(=O)NC6=O)CC5)C(F)(F)C4)CC3)cc2cc1NC(=O)c1cncc(F)c1` (stereo partly shown) [I-127], the bioavailability in data set [1] was ≤ 5%. For the same molecule, on IRAK4, the DC50 was < 10 nM.

On to `COc1cc2nn([C@H]3CC[C@H](CN4CCC5(CN(c6ccc(C7CCC(=O)NC7=O)c(Cl)c6)C5)C(F)(F)C4)CC3)cc2cc1NC(=O)c1cncc(C#N)c1` (stereo partly shown) [I-128], for which, in data set [1], the bioavailability is ≤ 5%. The DC50 at IRAK4 is 10 to 100 nM.

Take `Cn1c(=O)n(C2CCC(=O)NC2=O)c2cccc([C@@H]3CCN(C[C@H]4CC[C@H](n5cc6cc(NC(=O)c7cncc(C#N)c7)ccc6n5)CC4)C[C@H]3F)c21` (stereo partly shown) [I-129]: the bioavailability in data set [1] is ≤ 5%. In addition, the DC50 at IRAK4 is < 10 nM.

With `COc1cc2nn([C@H]3CC[C@H](CN4CCC5(CCN(c6cccc7c(C8CCC(=O)NC8=O)nn(C)c67)CC5)C(F)(F)C4)CC3)cc2cc1NC(=O)c1cncc(C#N)c1` (stereo partly shown) [I-132], the bioavailability in data set [1] was ≤ 5%. Besides, the DC50 at IRAK4 was < 10 nM.

In the case of `COc1cc2nn([C@H]3CC[C@H](CN4CC[C@@H](c5c(Cl)ccc6c5n(C)c(=O)n6C5CCC(=O)NC5=O)[C@H](F)C4)CC3)cc2cc1NC(=O)c1cncc(C#N)c1` (stereo partly shown) [I-133], the bioavailability in data set [1] was ≤ 5%. In addition, at IRAK4, the DC50 was < 10 nM.

On to `Cn1c(=O)n(C2CCC(=O)NC2=O)c2cccc([C@@H]3CCN(C[C@H]4CC[C@H](n5cc6cc(NC(=O)c7cc(C(F)(F)F)ccn7)ccc6n5)CC4)C[C@H]3F)c21` (stereo partly shown) [I-134], for which the bioavailability in data set [1] was ≥ 5%. Also, the DC50 on IRAK4 was > 200 nM.

For `Cn1c(=O)n(C2CCC(=O)NC2=O)c2cccc(N3CC[C@H](NC[C@H]4CC[C@H](n5cc(NC(=O)c6cnn7ccc(N8C[C@H]9C[C@@H]8CO9)nc67)c(C(F)F)n5)CC4)[C@@H](F)C3)c21` (stereo partly shown) [I-135], the bioavailability in data set [1] was ≥ 5%. Besides, the DC50 at IRAK4 is < 10 nM.

Regarding `CN(C[C@H]1CC[C@H](c2nc3cc(C(C)(C)O)c(NC(=O)c4cccc(C(F)(F)F)n4)cc3o2)CC1)[C@@H]1CCN(c2cccc3c2n(C)c(=O)n3C2CCC(=O)NC2=O)C[C@H]1F` (stereo partly shown) [I-137], the bioavailability in data set [1] is ≥ 5%. The DC50 at IRAK4 was < 10 nM.

`Cn1c(=O)n(C2CCC(=O)NC2=O)c2cccc(N3CCC4(CCN(C[C@H]5CC[C@H](n6cc7cc(NC(=O)c8cccc(C(F)(F)F)c8)ncc7n6)CC5)CC4(F)F)CC3)c21` (stereo partly shown) [I-141]: in data set [1], the bioavailability was ≤ 5%. Besides, on IRAK4, the DC50 lay in the range of 10 to 100 nM.

As to `COc1cc2nn([C@H]3CC[C@H](CN4CC[C@@H](c5cccc6c5n(C)c(=O)n6C5CCC(=O)NC5=O)[C@H](F)C4)CC3)cc2cc1C(=O)Nc1cccc(C(F)(F)F)c1` (stereo partly shown) [I-142], the bioavailability in data set [1] is ≥ 5%. Moreover, the DC50 at IRAK4 was < 10 nM.

On to `Cc1nc(C(=O)Nc2ccc3nn([C@H]4CC[C@H](CN5CC[C@@H](c6cccc7c6n(C)c(=O)n7C6CCC(=O)NC6=O)[C@H](F)C5)CC4)cc3c2)co1` (stereo partly shown) [I-148], for which the bioavailability in data set [1] is ≤ 5%. For the same molecule, the DC50 at IRAK4 was < 10 nM.

`Cn1c(=O)n(C2CCC(=O)NC2=O)c2cccc([C@@H]3CCN(C[C@H]4CC[C@H](n5cc6cc(NC(=O)c7csc(C(F)(F)F)n7)ccc6n5)CC4)C[C@H]3F)c21` (stereo partly shown) [I-149]: in data set [1], the bioavailability was ≤ 5%. For the same molecule, the DC50 at IRAK4 was < 10 nM.

Consider `Cn1c(=O)n(C2CCC(=O)NC2=O)c2cccc([C@@H]3CCN(C[C@H]4CC[C@H](n5cc6cc(NC(=O)c7nc(C(F)(F)F)cs7)ccc6n5)CC4)C[C@H]3F)c21` (stereo partly shown) [I-154], for which, in data set [1], the bioavailability was ≤ 5%. Also, the DC50 on IRAK4 was < 10 nM.

As to `Cn1cc(Cl)c(C(=O)Nc2ccc3nn([C@H]4CC[C@H](CN5CC[C@@H](c6cccc7c6n(C)c(=O)n7C6CCC(=O)NC6=O)[C@H](F)C5)CC4)cc3c2)n1` (stereo partly shown) [I-155], the bioavailability in data set [1] was ≤ 5%. Further, on IRAK4, the DC50 is > 200 nM.

As to `Cn1c(=O)n(C2CCC(=O)NC2=O)c2cccc([C@@H]3CCN(C[C@H]4CC[C@H](n5cc6cc(NC(=O)c7cncc(C(F)(F)F)n7)ncc6n5)CC4)C[C@H]3F)c21` (stereo partly shown) [I-156], the bioavailability in data set [1] was ≤ 5%. Moreover, the DC50 on IRAK4 was < 10 nM.

In the case of `Cn1c(=O)n(C2CCC(=O)NC2=O)c2cccc([C@@H]3CCN(C[C@H]4CC[C@H](c5nc6cc(C(C)(C)O)c(NC(=O)c7cncc(C(F)(F)F)c7)cc6s5)CC4)C[C@H]3F)c21` (stereo partly shown) [I-163], in data set [1], the bioavailability is ≥ 5%. In addition, the DC50 at IRAK4 was < 10 nM.

On to `Cn1c(=O)n(C2CCC(=O)NC2=O)c2cccc([C@@H]3CCN(C[C@H]4CC[C@H](c5nc6cc(C(C)(C)O)c(NC(=O)c7cccc(C(F)(F)F)n7)cc6o5)CC4)C[C@H]3F)c21` (stereo partly shown) [I-167], for which the bioavailability in data set [1] was ≥ 5%. Further, the DC50 at IRAK4 is < 10 nM.

In the case of `Cn1c(=O)n(C2CCC(=O)NC2=O)c2cccc([C@@H]3CCN(C[C@H]4CC[C@H](c5nc6cc(C(C)(C)O)c(NC(=O)c7cccc(C(F)(F)F)c7)cc6s5)CC4)C[C@H]3F)c21` (stereo partly shown) [I-169], the bioavailability in data set [1] is ≤ 5%. Further, at IRAK4, the DC50 was < 10 nM.

As a reminder, the bioavailability is dose-corrected exposure relative to a reference, in per cent. The term DC50 denotes the concentration giving 50% degradation. A low value points to a more potent degrader.
